Test results reported in ChEMBL document CHEMBL1158612, “Anti HIV-1 agents 5: synthesis and anti-HIV-1 activity of some N-arylsulfonyl-3-acetylindoles in vitro” (Bioorg Med Chem Lett, 2010).
Values after ≈ are worked out from the molar mass of the structure shown.

Key:
[1] = Cytotoxicity against human C8166 cells after 3 days by MTT assay; assay type: cell-based
[2] = test system: Human immunodeficiency virus 1; assay: Antiviral activity against HIV1 3B infected in C8166 cells assessed as inhibition of syncytia formation; assay type: functional, organism-based; conditions: Human immunodeficiency virus 1, 3B
[3] = Therapeutic index, ratio of CC50 for human C8166 to EC50 for HIV1 3B

Which CC50 at 72 h [1] does the source give for `Cc1cn([C@H]2C[C@H](N=[N+]=[N-])[C@@H](CO)O2)c(=O)[nH]c1=O` [ZIDOVUDINE] here?
The CC50 at 72 h was 1140 µg/mL (≈ 4260 µM).

What about the EC50 [2] of the same compound?
The EC50 was 0.00324 µg/mL (≈ 0.0121 µM).

What about the selectivity ratio [3] of the same compound?
Its selectivity ratio is 353000.

Which CC50 at 72 h [1] does the source give for `CCc1ccc(S(=O)(=O)n2cc(C(C)=O)c3cc(C#N)ccc32)cc1` here?
Its CC50 at 72 h is 113 µg/mL (≈ 320 µM).

And the EC50 [2]?
The EC50 was 30.5 µg/mL (≈ 86.5 µM).

And the selectivity ratio [3]?
The selectivity ratio was 3.7.

For `CC(=O)c1cn(S(=O)(=O)c2ccccc2)c2ccc(C#N)cc12`, which CC50 at 72 h [1] is on record?
Its CC50 at 72 h is 66.2 µg/mL (≈ 204 µM).

What about the EC50 [2] of the same compound?
The EC50 was 57.5 µg/mL (≈ 177 µM).

And the selectivity ratio ([3]; C8166 cells)?
Its selectivity ratio is 1.21.

Which CC50 at 72 h [1] does the source give for `CC(=O)c1cn(S(=O)(=O)c2ccc(Br)cc2)c2ccc([N+](=O)[O-])cc12` here?
Its CC50 at 72 h is 70.4 µg/mL (≈ 166 µM).

What about the EC50 [2] of the same compound?
Its EC50 is 54.5 µg/mL (≈ 129 µM).

What about the selectivity ratio ([3]; C8166 cells) of the same compound?
The selectivity ratio was 1.29.

Which results are given for `CC(=O)c1cn(S(=O)(=O)c2ccc(Cl)cc2)c2ccc(C#N)cc12`?
CC50 at 72 h [1]: 65.2 µg/mL (≈ 182 µM); EC50 [2]: 54.4 µg/mL (≈ 152 µM); selectivity ratio ([3]; C8166 cells): 1.19

Which CC50 at 72 h [1] does the source give for `O=S(=O)(c1ccc(Br)cc1)n1ccc2ccccc21` here?
The CC50 at 72 h was greater than 200 µg/mL.

And the EC50 [2]?
The EC50 was 20.4 µg/mL (≈ 60.7 µM).

What about the selectivity ratio ([3]; C8166 cells) of the same compound?
The selectivity ratio was greater than 9.79.

With `CC(=O)c1cn(S(=O)(=O)c2ccc(C)cc2)c2ccc([N+](=O)[O-])cc12` as the compound, how does the CC50 at 72 h [1] read?
Its CC50 at 72 h is greater than 200 µg/mL.

And the EC50 [2]?
Its EC50 is greater than 200 µg/mL.

Which results are given for `O=[N+]([O-])c1cccc(S(=O)(=O)n2ccc3ccccc32)c1`?
CC50 at 72 h [1]: > 200 µg/mL; EC50 [2]: 0.74 µg/mL (≈ 2.45 µM); selectivity ratio ([3]; C8166 cells): > 270

For `N#Cc1ccc2c(ccn2S(=O)(=O)c2ccccc2)c1`, which CC50 at 72 h [1] is on record?
The CC50 at 72 h was greater than 200 µg/mL.

What about the EC50 [2] of the same compound?
Its EC50 is 3.23 µg/mL (≈ 11.4 µM).

And the selectivity ratio ([3]; C8166 cells)?
The selectivity ratio was greater than 61.9.

Which results are given for `CC(=O)c1cn(S(=O)(=O)c2ccc(Cl)c([N+](=O)[O-])c2)c2ccccc12`?
CC50 at 72 h [1]: 3.21 µg/mL (≈ 8.47 µM); EC50 [2]: 3.43 µg/mL (≈ 9.06 µM); selectivity ratio ([3]; C8166 cells): 0.94

Which CC50 at 72 h [1] does the source give for `CC(=O)c1cn(S(=O)(=O)c2ccccc2)c2ccc([N+](=O)[O-])cc12` here?
Its CC50 at 72 h is greater than 200 µg/mL.

What about the EC50 [2] of the same compound?
Its EC50 is 45.8 µg/mL (≈ 133 µM).

And the selectivity ratio ([3]; C8166 cells)?
Its selectivity ratio is greater than 4.36.

For `CC(=O)c1cn(S(=O)(=O)c2cccc([N+](=O)[O-])c2)c2cc(C)ccc12`, which CC50 at 72 h [1] is on record?
Its CC50 at 72 h is 125 µg/mL (≈ 349 µM).

What about the EC50 [2] of the same compound?
The EC50 was 1.02 µg/mL (≈ 2.85 µM).

What about the selectivity ratio ([3]; C8166 cells) of the same compound?
The selectivity ratio was 122.

With `CC(=O)c1cn(S(=O)(=O)c2cccc([N+](=O)[O-])c2)c2ccccc12` as the compound, how does the CC50 at 72 h [1] read?
The CC50 at 72 h was 164 µg/mL (≈ 477 µM).

What about the EC50 [2] of the same compound?
The EC50 was 2.12 µg/mL (≈ 6.16 µM).

And the selectivity ratio ([3]; C8166 cells)?
The selectivity ratio was 77.4.

Which results are given for `CC(=O)c1cn(S(=O)(=O)c2ccc(C)cc2)c2ccc(C#N)cc12`?
CC50 at 72 h [1]: 147 µg/mL (≈ 435 µM); EC50 [2]: 76.9 µg/mL (≈ 227 µM); selectivity ratio ([3]; C8166 cells): 1.91

With `CC(=O)c1cn(S(=O)(=O)c2ccc(Br)cc2)c2ccc(C#N)cc12` as the compound, how does the CC50 at 72 h [1] read?
Its CC50 at 72 h is greater than 200 µg/mL.

What about the EC50 [2] of the same compound?
Its EC50 is greater than 200 µg/mL.

Which CC50 at 72 h [1] does the source give for `O=S(=O)(c1ccccc1)n1ccc2ccccc21` here?
Its CC50 at 72 h is 47.1 µg/mL (≈ 183 µM).

What about the EC50 [2] of the same compound?
The EC50 was 0.93 µg/mL (≈ 3.61 µM).

What about the selectivity ratio ([3]; C8166 cells) of the same compound?
Its selectivity ratio is 50.7.
